From patent publication US20090005385A1, “Treatment or Prevention of Cancer or Cardiovascular Disease with Methenyltetrahydrofolate Synthetases” (CORNELL RESEARCH FOUNDATION, INC., priority 2004, published 2009)
pKi: −log10 of the molar value.

Legend:
[1] = tested on: cell cultures; conditions: substrate for FPGS; cited from earlier work
[2] = molecular target: mouse enzyme GARFT (Mus musculus, UniProt Q64737); conditions: read-out: Ki mouse GARFT; cited from earlier work
[3] = tested on: MTHFS; experiment: Inhibition of MTHFS-catalyzed conversion of 5-formylTHF to 5,10-methenylTHF (spectrophotometric assay); assay type: biochemical
Procedure: Tissue samples were sonicated four times for 15 s in a buffer containing 100 mM HEPES pH 7.0, 100 mM sodium chloride, 5 mM EDTA, 1% Tween-20. The solution was clarified by centrifugation. MTHFS activity was determined using a spectrophotometer by monitoring the appearance of 5,10-methenyltetrahydrofolate, which has an absorbance maximum at 355 nm. For a typical assay, 50 μL of clarified tissue supernatant was added to a quartz cuvette containing 100 μM (6S)-5-formylTHF, 1 mM Mg-ATP and 100 mM MES, pH 6.0 and the rate of 5,10-methenylTHF formation was quantified. Activity measurements were normalized to total protein that was quantified using the Lowry-Bensadoun method (Bensadoun et al., “Assay of Proteins in the Presence of Interfering Materials,” Anal Biochem 70:241-250 (1976), which is hereby incorporated by reference in its entirety).
The UV spectrum of purified rabbit liver MTHFS differs from the spectrum of recombinant mouse MTHFS (FIG. 4). Therefore, it was investigated whether rabbit liver MTHFS could be reconstituted with NADA resulting in a change in the UV spectrum of the protein. […]

[4] = tested on: MCF-7 cells; experiment: Folate turnover in cultured cells (pulse-chase); assay type: cell-based, human; conditions: 20 μM in chase medium
Procedure: Cell monolayers at 75% confluence were washed with PBS, then labeled for 12 h in defined αMEM lacking folate and glycine and supplemented with 25 nM (6S)-[^3H]5-formylTHF. For the chase, cell monolayers were washed with 10 ml of PBS, trypsinized, and pelleted by centrifugation. The cells were seeded in triplicate (1×10^6 cells) into 100 mm culture plates containing 10 ml of defined αMEM supplemented with 2 μM folic acid. Catecholamines (20 μM dopamine, NADA, and L-dopa) were prepared freshly and added to the chase media prior to the addition of labeled cells. Cells were harvested at defined time points, the medium was removed and the tritium in the medium was quantified. The cell monolayers were washed with PBS and lysed with 0.2 M ammonium hydroxide. Tritium remaining in the cells was quantified using a Beckman LS 8100 liquid scintillation counter.
Catecholamine availability may be rate limiting for MTHFS-catalyzed folate catabolism in MCF-7 cells. The effects of exogenous catecholamines on folate turnover rates were determined using pulse-chase analyses in MCF-7 cells. Folate turnover in MCF-7 cells labeled with [^3H]-5-formylTHF is biphasic, with an initial rapid phase of turnover followed by a slower phase (Anguera et al., J. Biol. Chem. 278:29856-29862 (2003), which is hereby incorporated by reference in its entirety). Addition of 20 μM NADA to the chase medium increased the magnitude of the rapid phase of folate turnover by 12% compared to untreated cells (FIG. 11A). […] To distinguish between these two mechanisms, 20 μM dopamine and L-dopa were added to the chase medium. Dopamine is the precursor of NADA, and both dopamine and L-dopa can function as oxidants following oxidation of their diphenolic ring generating dopamine-quinone or dopa-quinone (Rescigno et al., Biochemical Pharmacology 56:1089-1096 (1998); Graham, D. G. Mol. Pharmacol. 14:633-643 (1978), which are hereby incorporated by reference in their entirety). […] The addition of dopamine to the culture medium increased the magnitude of the rapid phase of folate turnover by only 4% relative to untreated cells (FIG. 11A). The minor effect of dopamine on folate turnover may reflect N-acetyltransferase-mediated dopamine acetylation that generating NADA. […] In summary, the pulse chase experiments indicate that NADA may be limiting for in vivo folate catabolism, and NADA may function specifically as the electron acceptor molecule for MTHFS-mediated folate catabolism.

[5] = tested on: MCF-7 cells; experiment: Radiolabeled folate accumulation in cultured cells treated with catecholamines; assay type: cell-based, human; conditions: 12 h, 25 nM (6S)-[^3H]-5-formylTHF, 0-150 μM catecholamine
Procedure: (§1) Cell monolayers at 70% confluence in 6-well plates were labeled for 12 h in defined αMEM lacking folate and glycine, but supplemented with 25 nM (6S)-[^3H]5-formylTHF and 0, 25 μM, 50 μM, 75 μM, 100 μM, or 150 μM NADA, dopamine, or epinephrine. Cells were harvested by washing with 5 mL PBS, trypsinized, and pelleted by centrifugation and viable cells (determined by their ability to exclude trypan blue) were quantified. The cell pellets were lysed with 0.2 M ammonium hydroxide, and the intracellular tritium was quantified using a Beckman LS 8100 liquid scintillation counter.
Because the addition of NADA to the chase medium increased folate turnover rates in MCF-7 cells, the effects of various catecholamines on [^3H]folate accumulation was investigated. Cells were cultured for 12 h in defined αMEM medium containing 25 nM (6S)-[^3H]-5-formylTHF and various concentrations of NADA, dopamine, and epinephrine, and cellular [^3H]folate content was determined.

[6] = tested on: MCF-7 cells; experiment: Cell viability (trypan blue) after catecholamine treatment; assay type: cell-based, human; conditions: 12 h, various concentrations
Procedure: FIG. 12A-B show the effect of NADA, dopamine, and epinephrine on folate accumulation and cell viability in MCF-7 cells. MCF-7 cells were incubated with 25.0 nM (6S)-[^3H]5-formylTHF and various concentrations of NADA, dopamine, and epinephrine for 12 h, then viable cells were quantified using trypan blue staining. […] All values were normalized to cpm for untreated cells, and untreated cells were given an arbitrary value of 100%. […] Cell viability is expressed as the percent of viable cells divided by the total number of cells. Total [^3H]folate compounds were quantified in cell lysates by liquid scintillation. All values represent quadruplicate measures, and error bars are standard deviations of the mean.
as §1

[7] = molecular target: T1, recombinant mouse MTHFS protein (Mus musculus, UniProt Q9D110); conditions: equilibrium binding
T1 sequence (Q9D110 1-203): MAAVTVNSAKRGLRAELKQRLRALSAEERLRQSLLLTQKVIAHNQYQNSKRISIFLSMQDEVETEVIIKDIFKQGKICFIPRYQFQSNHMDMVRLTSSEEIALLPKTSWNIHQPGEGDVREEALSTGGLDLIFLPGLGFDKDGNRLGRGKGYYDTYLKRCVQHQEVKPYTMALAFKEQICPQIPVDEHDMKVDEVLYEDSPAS

Chain of mouse enzyme GARFT (Q64737 whole entry): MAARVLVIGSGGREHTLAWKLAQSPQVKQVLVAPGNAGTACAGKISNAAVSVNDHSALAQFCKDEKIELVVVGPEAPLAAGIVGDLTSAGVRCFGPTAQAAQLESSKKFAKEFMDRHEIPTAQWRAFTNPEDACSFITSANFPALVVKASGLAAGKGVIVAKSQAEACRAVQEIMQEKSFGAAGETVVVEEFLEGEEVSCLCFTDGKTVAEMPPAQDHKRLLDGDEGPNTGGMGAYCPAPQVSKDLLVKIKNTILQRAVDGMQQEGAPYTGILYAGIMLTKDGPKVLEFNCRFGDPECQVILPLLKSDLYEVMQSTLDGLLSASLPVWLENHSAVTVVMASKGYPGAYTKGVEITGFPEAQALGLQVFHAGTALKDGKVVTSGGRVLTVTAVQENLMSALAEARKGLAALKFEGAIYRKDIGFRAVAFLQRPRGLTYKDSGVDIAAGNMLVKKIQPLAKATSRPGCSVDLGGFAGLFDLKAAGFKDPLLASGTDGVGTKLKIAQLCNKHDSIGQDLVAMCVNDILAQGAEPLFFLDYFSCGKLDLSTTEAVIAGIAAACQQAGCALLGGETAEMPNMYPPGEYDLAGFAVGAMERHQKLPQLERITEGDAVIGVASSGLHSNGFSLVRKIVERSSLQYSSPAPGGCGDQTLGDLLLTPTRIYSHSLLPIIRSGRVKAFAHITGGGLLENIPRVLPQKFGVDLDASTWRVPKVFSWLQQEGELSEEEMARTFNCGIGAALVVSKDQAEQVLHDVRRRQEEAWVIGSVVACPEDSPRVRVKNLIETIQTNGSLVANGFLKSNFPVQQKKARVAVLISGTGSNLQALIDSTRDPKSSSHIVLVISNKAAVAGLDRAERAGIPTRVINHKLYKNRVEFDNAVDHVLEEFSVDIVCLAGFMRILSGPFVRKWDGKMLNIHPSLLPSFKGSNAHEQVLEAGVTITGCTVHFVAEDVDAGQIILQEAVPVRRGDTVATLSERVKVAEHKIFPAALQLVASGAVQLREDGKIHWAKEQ

For `Nc1nc(N)c(CCCC(C=O)c2ccc(C(=O)N[C@@H](CCC(=O)O)C(=O)O)cc2)c(=O)[nH]1` (stereo partly shown) [10-formyl-DDACTHF, 10-formyl-5,10-dideaza-acyclicTHF], the “accumulation in cell cultures” value [1] is given as “over 100 fold”.
For `Nc1nc2c(c(=O)[nH]1)C[C@@H](CCc1ccc(C(=O)N[C@@H](CCC(=O)O)C(=O)O)cc1)CN2` [DDATHF, 5,10-dideazatetrahydrofolate], the pKi [2] is listed as 8.22.
For `CC(=O)NCCc1ccc(O)c(O)c1` [NADA, N-acetyldopamine], the “inhibition of MTHFS-catalyzed conversion of 5-formylTHF to 5,10-methenylTHF” value [3] was “did not inhibit”, the “increase in magnitude of the rapid phase of folate turnover compared to untreated cells” value [4] was 12% and the “slow phase of folate turnover relative to untreated cells” value [4] was “did not change”. The “[^3H]folate accumulation” value [5] was “decreased [^3H]folate accumulation in a dose-dependent manner” and the cell viability [6] was “NADA-induced cell death”.
With `NCCc1ccc(O)c(O)c1` [dopamine] the “increase in magnitude of the rapid phase of folate turnover compared to untreated cells” value [4] was 4%, the “[^3H]folate accumulation” value [5] was “Neither the addition of dopamine nor epinephrine to culture media impaired [^3H]folate accumulation” and the “binding to recombinant mouse MTHFS protein” value [7] was “neither dopamine nor oxidized dopamine bind”.
